Results on two compounds are retold here after paper PMC10064984, “Anti-cyclooxygenase, anti-glycation, and anti-skin aging effect of Dendrobium officinale flowers’ aqueous extract and its phytochemical validation in aging” (Frontiers in Immunology, 2023).

Values joined by “and” are separate entries in the source; they are usually repeats but may differ in a detail not shown here. Equal values may be shown once. Read-outs that look alike come from different tables or passages of the source.

Experiment [1] can be described thus: Fluorescent AGEs formation in a BSA-fructose/glucose system. The settings on record: for IC50: read-out: BSA-glycation IC50. It counts as biochemical. Put shortly:
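Fluorescent AGE inhibition was measured in triplicate, correcting sample and control fluorescence for BSA-free blanks. Glycation used BSA incubated with D-fructose and D-glucose, with samples dissolved in DMSO:water (1:4).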

Experiment [2] has as its system CML expression in MGO-induced HDFs. The experiment in a line: Glycation cell assay: CML expression in MGO-induced HDFs (IF). It counts as cell-based, human. The settings on record: positive compound. How it is done: Based on previously reported methods ([25]), human primary dermal fibroblasts (HDFs) were induced by MGO to establish a cell model of high CML expression.
HDFs were cultured in high-glucose DMEM supplemented with 10% FBS containing 100 µg/ml of PS at 37°C in a humidified 5% CO2 incubator. Cell viability was assessed using the CCK-8 kit. HDFs were cultured in 12-well plates to approximately 70% confluence and then treated with 0.5 mmol/L of MGO for 48 h to induce glycation and the formation of CML. Subsequently, different concentrations of samples were added and co-cultured with MGO for an additional 48 h. Cells were then washed once with PBS and fixed in polyformaldehyde overnight at 4°C. Triton-X-100 solution (0.1%) was assigned to fixed cells for 5 min at room temperature to improve cell membrane permeability. After washing twice with PBS, cells were blocked in 1% BSA for 1 h, followed by incubation with the primary CML antibody (1:50) overnight at 4°C. […] Counterstaining was performed by adopting anti-fluorescence quenching and sealing liquid containing DAPI, followed by visualisation and fluorescence image capture using a microscope (Leica, Germany). ImageJ software was used to quantify CML expression from different images randomly selected in each group.

In experiment [3] the test system is type I collagen in HDFs. The experiment in a line: Collagen type I immunofluorescence staining in HDFs. The settings on record: for COL I staining: VC positive control, NT = 100%, replicates and AVE, listed as VC. It counts as cell-based, human. On the procedure: (§1) HDFs were cultured in DMEM with 10% (v/v) FBS and 1% PS at 37°C in a humidified 5% CO2 incubator. Cells were subcultured using pancreatin solution after reaching confluence. All experiments were performed between the third and eighth passages.
(§2) The synthesis of collagen types I and III was detected using IF ([26]) and ELISA ([27]). HDFs were digested and seeded in a 24-well culture plate on slides at a density of 50,000 cells/well in a complete medium. After reaching 80% confluency, cells were starved with the medium in the absence of serum for 16 h. Cells were then treated with positive controls or active samples (prepared in medium without serum) for an additional 48 h. For analysis and visualisation of types I and III collagens, the supernatants and remaining cell slides were both collected and analysed using ELISA kits and the IF staining method, respectively.
(§3) Collected supernatants were centrifuged at 10,000 rpm for 10 min and used for types I and III collagen ELISA, according to the manufacturer’s protocol. The remaining cell slides were washed once with PBS and fixed in polyformaldehyde overnight at 4°C. Subsequently, the slides were treated with 0.5% Triton-X100 for 5 min. After washing, cells were blocked with 1% BSA at room temperature for 1 h. Cells were then incubated with types I and type III collagen primary antibodies (1:100) for 2 h at room temperature. […] Finally, the nuclei were counter-stained with DAPI, and relevant fluorescent images were captured using a microscope. ImageJ software was used to quantify collagen expression from different images randomly selected in each group.

Experiment [4] deals with type III collagen in HDFs. Briefly: Collagen type III immunofluorescence staining in HDFs. It counts as cell-based, human. The settings on record: for COL III staining: VC positive control, NT = 100%, replicates and AVE, listed as VC. On the procedure:
as §1, §2, §3

Experiment [5] relates to secreted type I collagen of HDFs. The experiment in a line: Extracellular collagen type I ELISA on HDFs. The conditions noted are these: for COL I (ELISA): VC positive control, replicates and AVE, listed as VC. The format is cell-based, human. On the procedure:
as §1, §2, §3
Background: In an ELISA, binding on a coated surface is turned into a signal by an enzyme label.

Experiment [6] has as its system secreted type III collagen of HDFs. The experiment in a line: Extracellular collagen type III ELISA on HDFs. It counts as cell-based, human. The settings on record: VC positive control, replicates and AVE, listed as VC. On the procedure: as §1, §2
Collected supernatants were centrifuged at 10,000 rpm for 10 min and used for types I and III collagen ELISA, according to the manufacturer’s protocol. The remaining cell slides were washed once with PBS and fixed in polyformaldehyde overnight at 4°C. Subsequently, the slides were treated with 0.5% Triton-X100 for 5 min. After washing, cells were blocked with 1% BSA at room temperature for 1 h. […] ImageJ software was used to quantify collagen expression from different images randomly selected in each group.

As to `Cl.N=C(N)NN` [AG, Aminoguanidine hydrochloride, reference compound], the “fluorescent AGEs IC50” value in experiment [1] is 177.3 ± 11.6 µg/mL. For the same compound, in experiment [1] (15.625 ug/ml), the “inhibition of fluorescent AGEs formation (BSA-抗糖化), single replicate” value is -1.16% and 3.22%. For the same compound, the IC50 (in general, the concentration needed to halve the response being measured) amounted to 1620 ± 111 µM in experiment [1] (lower part of sheet (compound series)); 1600 µM in experiment [1] (mean ± SD, n = 3); 1620 ± 111 µM in experiment [1] (upper part of sheet (extract series), positive control also given in μM). The “BSA-glycation IC50” value in experiment [1] (upper part of sheet (extract series)) is 178.47 ± 12.27 µg/mL. The “inhibition of glycation (CML)” value in experiment [2] turned out to be 88.11%.
On to `O=C1O[C@H]([C@@H](O)CO)C(O)=C1O` [vitamin C], for which, in experiment [3] (VC 200 μg/ml, positive control), the “collagen type I expression (IF)” value is given as 190.20 % of control. The “COL I staining” value in experiment [3] was 173.88% and 170.79% and 188.58% and 168.29% and 249.47%; in experiment [3] (mean), 190.20%. In addition, in experiment [4] (VC 200 μg/ml, positive control), the “collagen type III expression (IF)” value is 125.90 % of control. Further, the “COL III staining” value in experiment [4] was 118.22% and 137.59% and 116.52% and 131.28%; in experiment [4] (mean), 125.90%. Also, the “COL I (ELISA)” value is 646.77 pg/mL and 611.41 pg/mL and 656.93 pg/mL in experiment [5]; 638.37 pg/mL in experiment [5] (mean). For the same compound, in experiment [5] (VC, 48 h, culture medium), the “increase of secreted collagen type I levels” value came out at 21.94%. The “COL III (ELISA)” value in experiment [6] is 2.70 ng/mL and 2.97 ng/mL and 3.15 ng/mL; in experiment [6] (mean), 2.94 ng/mL.
